Measurements: patent US9676715B2, “Bis-indolic derivatives, a process for preparing the same and their uses as a drug” (UNIVERSITE JOSEPH FOURIER, priority 2011, dated 2017)
≈ marks a conversion by molar mass, not a printed value. Like-named read-outs stand apart in the source and are kept apart here.

Columns and labels:
[1] = tested on: S. agalactiae (group B) ATCC 12400; assay: MIC, microdilution method (9.1); format: cell-based, Streptococcus agalactiae
Summary of the method: (§1)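 Compound concentrations tested: 0.50-128 mg/L final, two-fold steps. Medium was Mueller Hinton broth; final inoculum 5×10^5 CFU/ml; incubation at 37° C. without CO2 enrichment.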

[2] = tested on: S. mitis CIP 103335; assay: MIC, microdilution method (9.1); format: cell-based, Streptococcus mitis
Summary of the method: as §1

[3] = tested on: S. epidermidis ATCC 12228; assay: MIC, microdilution method (9.1); format: cell-based, Staphylococcus epidermidis
Summary of the method: as §1

[4] = tested on: S. epidermidis CIP 81.55; assay: MIC, microdilution method (9.1); format: cell-based, Staphylococcus epidermidis
Summary of the method: as §1

[5] = tested on: S. epidermidis CIP 103627; assay: MIC, microdilution method (9.1); format: cell-based, Staphylococcus epidermidis
Summary of the method: as §1

[6] = tested on: S. aureus ATCC 33592 (MRSA); assay: MIC, microdilution method (9.1); format: cell-based, Staphylococcus aureus; conditions: read after 18 h
Summary of the method: as §1

[7] = tested on: S. aureus CIP 65.6; assay: MIC, microdilution method (9.1); format: cell-based, Staphylococcus aureus
Summary of the method: as §1

[8] = tested on: S. aureus ATCC 6538; assay: MIC, microdilution method (9.1); format: cell-based, Staphylococcus aureus
Summary of the method: as §1

[9] = tested on: S. aureus ATCC 29213; assay: MIC, microdilution method (9.1); format: cell-based, Staphylococcus aureus
Summary of the method: as §1

[10] = tested on: S. aureus ATCC 25923; assay: MIC, microdilution method (9.1); format: cell-based, Staphylococcus aureus
Summary of the method: as §1

[11] = tested on: S. aureus CIP 65.25 (MRSA); assay: MIC, microdilution method (9.1); format: cell-based, Staphylococcus aureus; conditions: read after 18 h
Summary of the method: as §1

[12] = tested on: S. aureus CIP 103428; assay: MIC, microdilution method (9.1); format: cell-based, Staphylococcus aureus
Summary of the method: as §1

[13] = tested on: S. aureus ATCC 106414 (VISA); assay: MIC, microdilution method (9.1); format: cell-based, Staphylococcus aureus; conditions: read after 18 h
Summary of the method: as §1

[14] = tested on: S. aureus SA-1199B; assay: MIC, microdilution method (9.1); format: cell-based, Staphylococcus aureus
Summary of the method: as §1

[15] = tested on: S. aureus ATCC 9144; assay: MIC, microdilution method (9.1); format: cell-based, Staphylococcus aureus
Summary of the method: as §1

[16] = tested on: E. faecalis ATCC 29212; assay: MIC, microdilution method (9.1); format: cell-based, Enterococcus faecalis
Summary of the method: as §1

[17] = tested on: 29 bacterial strains belonging to 17 different species; assay: MIC determination, overall statements on the bacterial panel; format: cell-based; conditions: summary of MIC results
Description: The microdilution method recommended by the Clinical and Laboratory Standard Institute [M07-A8, Vol. 29, No. 2] was used. The activity of indolic compounds was tested against 29 bacterial strains belonging to 17 different species and 12 different genera (Staphylococcus, Streptococcus, Enterococcus, Listeria, Bacillus, Haemophilus, Escherichia, Klebsiella, Enterobacter, Serratia, Pseudomonas, and Acinetobacter). Bacterial inocula were prepared in Mueller Hinton broth (MH2, bioMérieux, Marcy L'Etoile, France), supplemented with 10% sheep blood for fastidious species (i.e., Streptococcus pneumoniae and Haemophilus influenzae). They were dispensed in 96 well microtiter plates (5×10^5 CFU/ml of final inoculum). Indolic compounds were added to the wells as to obtain two-fold serial concentrations (0.50-128 mg/L of final concentrations). Plates were incubated at 37° C. in ambient air, or at 37° C. in 5% CO2 enriched atmosphere for fastidious species. […] Drug-free cultures served as growth controls. Cultures receiving gentamicin, ciprofloxacin or cefotaxime served as positive controls.

[18] = tested on: Klebsiella pneumoniae API ATCC 35657; assay: MIC, microdilution method (9.1); format: cell-based
Summary of the method: as §1

[19] = tested on: Escherichia coli ATCC 25922; assay: MIC, microdilution method (9.1); format: cell-based; conditions: ATCC25922, 18 h
Summary of the method: as §1

[20] = tested on: S. pneumoniae ATCC 49619; assay: MIC, microdilution method (9.1); format: cell-based; conditions: Streptococcus pneumoniae, ATCC49619, 10% sheep blood, 5% CO2, 18 h
Summary of the method: (§2)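 Broth microdilution per CLSI M07-A8 in Mueller Hinton broth, final inoculum 5×10^5 CFU/ml. Indolic compounds tested as two-fold serial dilutions, 0.50-128 mg/L final. Plates incubated at 37° C. in ambient air; fastidious species received 10% sheep blood and 5% CO2.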

[21] = tested on: Pseudomonas aeruginosa CIP 5933; assay: MIC, microdilution method (9.1); format: cell-based
Summary of the method: as §1

[22] = tested on: Bacillus subtilis CIP 5262; assay: MIC, microdilution method (9.1); format: cell-based
Summary of the method: as §1

[23] = tested on: Enterobacter cloacae ATCC13047; assay: MIC, microdilution method (9.1); format: cell-based; conditions: 18 h
Summary of the method: as §1

[24] = tested on: Haemophilus influenzae ATCC 49766; assay: MIC, microdilution method (9.1); format: cell-based; conditions: ATCC49766; Haemophilus influenzae ATCC 49766; 10% sheep blood, 5% CO2; 18 h; read-out: MIC
Summary of the method: as §2

[25] = tested on: Acinetobacter baumanii ATCC 19606; assay: MIC, microdilution method (9.1); format: cell-based
Summary of the method: as §1

[26] = tested on: Serratia marcescens CIP 103551; assay: MIC, microdilution method (9.1); format: cell-based; conditions: CIP103551, 18 h
Summary of the method: as §1

[27] = tested on: Listeria innocua CIP 80.11; assay: MIC, microdilution method (9.1); format: cell-based
Summary of the method: as §1

[28] = tested on: E. faecium CIP 54.32; assay: MIC, microdilution method (9.1); format: cell-based, Enterococcus faecium
Summary of the method: as §1

[29] = tested on: S. pneumoniae ATCC 6303; assay: MIC, microdilution method (9.1); format: cell-based, Streptococcus pneumoniae; conditions: 5% CO2, 18 h
Summary of the method: as §2

[30] = tested on: S. pyogenes (group A) CIP 104226; assay: MIC, microdilution method (9.1); format: cell-based, Streptococcus pyogenes
Summary of the method: as §1

[31] = Staphylococcus aureus, read-out: MIC

## CC(C)(C)OC(=O)NCC(NC(=O)c1cccnc1)c1c[nH]c2ccc(Br)cc12 (stereo not shown) [Compound 10, tert-Butyl (2-(5-bromo-1H-indol-3-yl)-2-(nicotinamido)ethyl) carbamate]
[1]; Streptococcus agalactiae, ATCC12400, 18 h, read-out: MIC
  MIC: 128 mg/L (≈ 279 µM)
[2]; Streptococcus mitis, CIP103335, 18 h, read-out: MIC
  MIC: > 128 mg/L
[3]; Staphylococcus epidermidis, ATCC12228, read after 18 h, read-out: MIC
  MIC: > 128 mg/L
[4]; Staphylococcus epidermidis, CIP81, read after 18 h, read-out: MIC
  MIC: > 128 mg/L
[5]; Staphylococcus epidermidis, CIP103627, read after 18 h, read-out: MIC
  MIC: > 128 mg/L
[6]; [31]
  MIC: > 128 mg/L
[7]; Staphylococcus aureus, CIP65, read after 18 h, read-out: MIC
  MIC: > 128 mg/L
[8]; Staphylococcus aureus, ATCC6538, read after 18 h, read-out: MIC
  MIC: 64 mg/L (≈ 139 µM)
[9]; Staphylococcus aureus, ATCC29213, read after 18 h, read-out: MIC
  MIC: 128 mg/L (≈ 279 µM)
[10]; Staphylococcus aureus, ATCC25923, read after 18 h, read-out: MIC
  MIC: > 128 mg/L
[11]; [31]
  MIC: > 128 mg/L
[12]; Staphylococcus aureus, CIP103428, read after 18 h, read-out: MIC
  MIC: 64 mg/L (≈ 139 µM)
[13]; [31]
  MIC: > 128 mg/L
[14]; Staphylococcus aureus, SA1199B, 18 h
  MIC: 64 mg/L (≈ 139 µM)
[15]; Staphylococcus aureus, ATCC9144, read after 18 h, read-out: MIC
  MIC: > 128 mg/L
[16]; Enterococcus faecalis, ATCC29212, 18 h, read-out: MIC
  MIC: > 128 mg/L
[17]
  intrinsic antibacterial activity (in words): lack of intrinsic antibacterial activity
[18]; ATCC35657, 18 h, read-out: MIC
  MIC: > 128 mg/L
[19]
  MIC: > 128 mg/L
[20]
  MIC: 128 mg/L (≈ 279 µM)
[21]; CIP5933, 18 h, read-out: MIC
  MIC: > 128 mg/L
[22]; CIP5262, 18 h, read-out: MIC
  MIC: 128 mg/L (≈ 279 µM)
[23]
  MIC: > 128 mg/L
[24]
  MIC: > 128 mg/L
[25]; Acinetobacter baumannii, ATCC19606, 18 h, read-out: MIC
  MIC: > 128 mg/L
[26]
  MIC: > 128 mg/L
[27]; CIP80, 18 h, read-out: MIC
  MIC: > 128 mg/L
[28]; Enterococcus faecium, CIP54, 18 h, read-out: MIC
  MIC: > 128 mg/L
[29]; Streptococcus pneumoniae, ATCC6303, 10% sheep blood, read-out: MIC
  MIC: 128 mg/L (≈ 279 µM)
[30]; Streptococcus pyogenes, CIP104226, 18 h, read-out: MIC
  MIC: 128 mg/L (≈ 279 µM)

## tert-Butyl (2-(p-bromo)benzamido-2-(5-bromo-1H-indol-3-yl)ethyl)carbamate [Compound 8a]
[1]; 18 h
  MIC: 64 mg/L
[2]; 18 h
  MIC: >128 mg/L
[3]; read after 18 h
  MIC: >32 mg/L
[4]; read after 18 h
  MIC: >32 mg/L
[5]; read after 18 h
  MIC: >32 mg/L
[6]
  MIC: >32 mg/L
[7]; read after 18 h
  MIC: >32 mg/L
[8]; read after 18 h
  MIC: >32 mg/L
[9]; read after 18 h
  MIC: >32 mg/L
[10]; read after 18 h
  MIC: >128(>32) mg/L
[11]
  MIC: >32 mg/L
[12]; read after 18 h
  MIC: >32 mg/L
[13]
  MIC: >32 mg/L
[14]; S. aureus SA-1199B, read after 18 h
  MIC: >32 mg/L
[15]; read after 18 h
  MIC: >32 mg/L
[16]; 18 h
  MIC: >128 mg/L
[17]
  intrinsic antibacterial activity (in words): lack of intrinsic antibacterial activity
[18]; 18 h
  MIC: 64 mg/L
[21]; 18 h
  MIC: >128(>32) mg/L
[22]; 18 h
  MIC: >128 mg/L
[25]; 18 h
  MIC: >128(>32) mg/L
[27]; 18 h
  MIC: >128 mg/L
[28]; 18 h
  MIC: >128 mg/L
[29]; 10% sheep blood
  MIC: 128 mg/L
[30]; 18 h
  MIC: >128 mg/L
